Assay [1] deals with Kappa-type opioid receptor (Cavia porcellus) (UniProt P41144). Kind of assay: Ratio of IC50 of ethylketazocine (EK) in the presence (100 nM) to that of ethylketazocine (EK) alone, against kappa opioid receptor in Guinea pig ileum preparation. Type of assay: tissue-based.
The target in assay [2] is Delta-type opioid receptor (Mus musculus) (UniProt P32300). In words: Ratio of IC50 of [D-Ala2,D-Leu5]enkephalin (DADLE) in the presence (100 nM) to that of [(DADLE) alone, against delta opioid receptor in mouse vas deferens preparation.
Chain of Delta-type opioid receptor (Mus musculus) (P32300 whole entry): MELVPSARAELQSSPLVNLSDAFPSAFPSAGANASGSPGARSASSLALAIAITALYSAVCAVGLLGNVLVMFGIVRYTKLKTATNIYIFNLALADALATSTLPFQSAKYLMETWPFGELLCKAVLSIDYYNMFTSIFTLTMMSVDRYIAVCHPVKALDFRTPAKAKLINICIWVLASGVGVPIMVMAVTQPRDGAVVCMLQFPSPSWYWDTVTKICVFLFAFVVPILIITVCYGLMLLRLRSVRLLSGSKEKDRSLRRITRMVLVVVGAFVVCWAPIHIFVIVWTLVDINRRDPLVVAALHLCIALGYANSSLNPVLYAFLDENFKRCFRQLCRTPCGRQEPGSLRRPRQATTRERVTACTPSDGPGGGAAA
Assay [3] deals with Mu-type opioid receptor (Cavia porcellus) (UniProt P97266). In words: Ratio of IC50 of morphine (M) in the presence (100 nM) to that of morphine (M) alone, against mu opioid receptor in Guinea pig ileum preparation. The assay is classed as tissue-based.
Chain of Mu-type opioid receptor (Cavia porcellus) (P97266 whole entry): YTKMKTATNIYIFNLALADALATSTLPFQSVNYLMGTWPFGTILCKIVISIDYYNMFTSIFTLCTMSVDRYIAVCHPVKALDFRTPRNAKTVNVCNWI
The target of assay [4] is Opioid receptors; delta & kappa (Homo sapiens) (UniProt P41145+P41143). In words: Selectivity ratio is IC50 value of kappa-opioid receptor to that of delta-opioid receptor. Type of assay: protein assay.
Chain of Opioid receptors; delta & kappa (Homo sapiens) (P41143 whole entry, looked up): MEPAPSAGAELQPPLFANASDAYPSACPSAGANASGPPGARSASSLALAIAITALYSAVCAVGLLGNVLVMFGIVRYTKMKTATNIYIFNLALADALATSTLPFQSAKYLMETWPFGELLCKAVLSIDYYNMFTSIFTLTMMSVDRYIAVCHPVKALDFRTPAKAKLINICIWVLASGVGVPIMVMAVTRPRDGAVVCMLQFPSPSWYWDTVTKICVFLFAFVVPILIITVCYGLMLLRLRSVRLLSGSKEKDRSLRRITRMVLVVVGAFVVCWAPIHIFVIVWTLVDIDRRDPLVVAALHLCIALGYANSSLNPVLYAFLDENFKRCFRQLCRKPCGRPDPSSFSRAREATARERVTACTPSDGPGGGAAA
Chain of Opioid receptors; delta & kappa (Homo sapiens) (P41145 whole entry, looked up): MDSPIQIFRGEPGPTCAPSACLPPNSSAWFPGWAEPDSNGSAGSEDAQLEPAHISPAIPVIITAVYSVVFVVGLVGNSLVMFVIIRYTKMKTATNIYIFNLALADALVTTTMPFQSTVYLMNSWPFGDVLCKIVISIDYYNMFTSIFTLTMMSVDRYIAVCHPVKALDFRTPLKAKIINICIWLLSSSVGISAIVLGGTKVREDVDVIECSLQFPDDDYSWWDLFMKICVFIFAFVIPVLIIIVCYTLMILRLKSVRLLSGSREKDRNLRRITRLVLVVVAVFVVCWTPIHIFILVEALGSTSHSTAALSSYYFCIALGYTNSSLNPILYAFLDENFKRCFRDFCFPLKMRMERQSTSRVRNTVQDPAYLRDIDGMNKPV
In assay [5] the target is Opioid receptors; mu & kappa (Homo sapiens) (UniProt P41145+P35372). Kind of assay: Selectivity ratio is IC50 value of kappa-opioid receptor to that of mu-opioid receptor. The assay is classed as protein assay.
Chain of Opioid receptors; mu & kappa (Homo sapiens) (P35372 whole entry, looked up): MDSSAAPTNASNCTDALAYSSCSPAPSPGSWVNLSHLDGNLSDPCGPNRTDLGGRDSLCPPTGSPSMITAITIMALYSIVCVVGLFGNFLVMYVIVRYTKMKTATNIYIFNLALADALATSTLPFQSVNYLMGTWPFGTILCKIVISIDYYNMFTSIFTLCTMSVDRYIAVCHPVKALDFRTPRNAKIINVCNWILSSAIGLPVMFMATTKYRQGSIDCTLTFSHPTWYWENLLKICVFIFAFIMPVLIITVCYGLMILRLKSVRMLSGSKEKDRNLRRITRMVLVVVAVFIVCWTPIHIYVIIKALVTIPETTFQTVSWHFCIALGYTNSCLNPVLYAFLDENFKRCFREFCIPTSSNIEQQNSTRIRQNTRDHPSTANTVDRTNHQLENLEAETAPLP
Chain of Opioid receptors; mu & kappa (Homo sapiens) (P41145 whole entry, looked up): as the sequence (P41145 whole entry, looked up) above
The target in assay [6] is Kappa-type opioid receptor (Cavia porcellus, UniProt P41144). In words: Binding affinity for k opioid receptor was determined using [3H]U-69593 radioligand in Guinea pig brain membranes. Type of assay: cell membranes, Membrane.
Chain of Kappa-type opioid receptor (P41144 whole entry): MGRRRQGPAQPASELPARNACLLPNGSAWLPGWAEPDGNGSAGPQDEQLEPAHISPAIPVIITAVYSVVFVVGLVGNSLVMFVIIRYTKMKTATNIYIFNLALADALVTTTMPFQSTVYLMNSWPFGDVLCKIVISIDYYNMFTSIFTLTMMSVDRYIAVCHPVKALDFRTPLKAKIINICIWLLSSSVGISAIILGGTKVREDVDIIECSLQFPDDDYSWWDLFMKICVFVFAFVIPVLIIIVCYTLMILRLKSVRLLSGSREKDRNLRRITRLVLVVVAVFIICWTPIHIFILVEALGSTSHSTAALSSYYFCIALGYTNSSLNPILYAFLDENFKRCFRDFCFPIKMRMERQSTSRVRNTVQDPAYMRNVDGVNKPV
Assay [7] addresses Mu-type opioid receptor (Cavia porcellus, UniProt P97266). In words: Binding affinity for mu opioid receptor was determined using radioligand [3H][D-Ala2,MePhe4,Gly-ol6]enkephalin (DAMGO) in Guinea pig brain membranes. Type of assay: cell membranes.

The values that follow come from ChEMBL document CHEMBL1126669, “A remarkable change of opioid receptor selectivity on the attachment of a peptidomimetic kappa address element to the delta antagonist, natrindole: 5'-[N2-alkylamidino)methyl]naltrindole derivatives as a novel class of kappa opioid receptor antagonists” (J Med Chem, 1993).

As a reminder, the Ki is the dissociation constant of the complex between target and ligand, obtained from inhibition or displacement. Low readings indicate higher affinity, high ones lower affinity.

Chain of Kappa-type opioid receptor (Cavia porcellus) (P41144 whole entry): as above
Chain of Mu-type opioid receptor (P97266 whole entry): as the sequence (P97266 whole entry) above

For the molecule `CCC(=N)NCc1ccc2[nH]c3c(c2c1)C[C@@]1(O)[C@H]2Cc4ccc(O)c5c4[C@@]1(CCN2CC1CC1)C3O5` (stereo partly specified), the IC50 ratio stood at 159 in assay [1], 2.28 in assay [2] and 11.3 in assay [3]. The Selectivity ratio stood at 69 in assay [4] and 14 in assay [5].

For `Oc1ccc2c3c1O[C@H]1c4[nH]c5ccccc5c4C[C@@]4(O)[C@@H](C2)N(CC2CC2)CC[C@]314`, the IC50 ratio was 1.3 in assay [1], 459 in assay [2] and 11.2 in assay [3].

In assay [6], `Oc1ccc2c3c1O[C@H]1c4[nH]c5c(c4C[C@@]4(O)[C@@H](C2)N(CC2CC2)CC[C@]314)C[C@@]1(O)[C@H]2Cc3ccc(O)c4c3[C@@]1(CCN2CC1CC1)[C@H]5O4` [NORBINALTORPHIMINE] registered a Ki of 0.28 nM. That is a sub-nanomolar value.

Regarding `CCCCC(=N)NCc1ccc2[nH]c3c(c2c1)C[C@@]1(O)[C@H]2Cc4ccc(O)c5c4[C@@]1(CCN2CC1CC1)C3O5` (stereo partly specified), the IC50 ratio worked out at 439 in assay [1], 4.71 in assay [2] and 15.7 in assay [3]. Moreover, the results for the Ki in assay [6] and in assay [7] were 0.061 nM and 3.5 nM, respectively. Moreover, the Selectivity ratio turned out to be 93 in assay [4] and 28 in assay [5].

For `CCCC(=N)NCc1ccc2[nH]c3c(c2c1)C[C@@]1(O)[C@H]2Cc4ccc(O)c5c4[C@@]1(CCN2CC1CC1)C3O5` (stereo partly specified), the IC50 ratio was 185 in assay [1], 3 in assay [2] and 19.3 in assay [3]. The Selectivity ratio in assay [4] worked out at 62; in assay [5], 10.
